Experiments:
Format in all cases: cell-based, human
Details in all cases: 10 μM
CCRF-CEM = assay: NCI-60 screen, Leukemia
Description: (§1) Several compounds were tested at single concentrations (10 μM) against 59 different human tumor cell lines, representing leukemia, melanoma and cancers of the lung, colon, brain, ovary, breast, prostate, and kidney (see, Table 3). The human tumor cell lines of the cancer screening panel were grown in RPMI 1640 medium containing 5% fetal bovine serum and 2 mM L-glutamine. For a typical screening experiment, cells were inoculated into 96 well microtiter plates in 100 μL at plating densities ranging from 5,000 to 40,000 cells/well depending on the doubling time of individual cell lines. After cell inoculation, the microtiter plates were incubated at 37° C., 5% CO2, 95% air and 100% relative humidity for 24 hours prior to addition of the compounds.
(§2) After 24 hours, two plates of each cell line were fixed in situ with TCA, to represent a measurement of the cell population for each cell line at the time of drug addition (Tz). Compounds were solubilized in dimethyl sulfoxide at 400-fold the desired final maximum test concentration and stored frozen prior to use. At the time of drug addition, an aliquot of frozen concentrate was thawed and diluted to twice the desired final maximum test concentration with complete medium containing 50 μg/ml gentamicin. Additional four, 10-fold or ½ log serial dilutions were made to provide a total of five compound concentrations plus control. Aliquots of 100 μl of these different drug dilutions were added to the appropriate microtiter wells already containing 100 μl of medium, resulting in the required final compound concentrations.
(§3) Following drug addition, the plates were incubated for an additional 48 hours at 37° C., 5% CO2, 95% air, and 100% relative humidity. For adherent cells, the assay was terminated by the addition of cold TCA. Cells were fixed in situ by the gentle addition of 50 μl of cold 50% (w/v) TCA (final concentration, 10% TCA) and incubated for 60 minutes at 4° C. The supernatant was discarded, and the plates were washed five times with tap water and air dried. Sulforhodamine B (SRB) solution (100 μl) at 0.4% (w/v) in 1% acetic acid was added to each well, and plates were incubated for 10 minutes at room temperature. After staining, unbound dye was removed by washing five times with 1% acetic acid and the plates were air dried. Bound stain was subsequently solubilized with 10 mM trizma base, and the absorbance was read on an automated plate reader at a wavelength of 515 nm. For suspension cells, the methodology was the same except that the assay was terminated by fixing settled cells at the bottom of the wells by gently adding 50 μl of 80% TCA (final concentration, 16% TCA). Using the seven absorbance measurements (time zero, (Tz), control growth, (C), and test growth in the presence of drug at the five concentration levels (Ti)), the percentage growth was calculated at each of the compound concentrations levels. Percentage growth inhibition was calculated as:
(§4) [(Ti−Tz)/(C−Tz)]×100 for concentrations for which Ti>/=Tz
(§5) [(Ti−Tz)/Tz]×100 for concentrations for which Ti<Tz.
(§6) Three dose response parameters were calculated for each compound. Growth inhibition of 50% (GI50) was calculated from [(Ti−Tz)/(C−Tz)]×100=50, which is the compound concentration resulting in a 50% reduction in the net protein increase (as measured by SRB staining) in control cells during the compound incubation. The compound concentration resulting in total growth inhibition (TGI) was calculated from Ti=Tz. The LC50 (concentration of compound resulting in a 50% reduction in the measured protein at the end of the compound treatment as compared to that at the beginning) indicating a net loss of cells following treatment was calculated from [(Ti−Tz)/Tz]×100=−50. Values were calculated for each of these three parameters if the level of activity was reached; however, if the effect was not reached or was exceeded, the value for that parameter was expressed as greater or less than the maximum or minimum concentration tested.

HL-60(TB) = assay: NCI-60 screen, Leukemia
Description: as §1, §2, §3, §4, §5, §6

K-562 = assay: NCI-60 screen, Leukemia
Description: as §1, §2, §3, §4, §5, §6

MOLT-4 = assay: NCI-60 screen, Leukemia
Description: as §1, §2, §3, §4, §5, §6

SR = assay: NCI-60 screen, Leukemia
Description: as §1, §2, §3, §4, §5, §6

A549/ATCC = assay: NCI-60 screen, Non-Small Cell Lung Cancer
Description: as §1, §2, §3, §4, §5, §6

EKVX = assay: NCI-60 screen, Non-Small Cell Lung Cancer
Description: as §1, §2, §3, §4, §5, §6

HOP-62 = assay: NCI-60 screen, Non-Small Cell Lung Cancer
Description: as §1, §2, §3, §4, §5, §6

HOP-92 = assay: NCI-60 screen, Non-Small Cell Lung Cancer
Description: as §1, §2, §3, §4, §5, §6

NCI-H226 = assay: NCI-60 screen, Non-Small Cell Lung Cancer
Description: as §1, §2, §3, §4, §5, §6

NCI-H23 = assay: NCI-60 screen, Non-Small Cell Lung Cancer
Description: as §1, §2, §3, §4, §5, §6

NCI-H322M = assay: NCI-60 screen, Non-Small Cell Lung Cancer
Description: as §1, §2, §3, §4, §5, §6

NCI-H460 = assay: NCI-60 screen, Non-Small Cell Lung Cancer
Description: as §1, §2, §3, §4, §5, §6

NCI-H522 = assay: NCI-60 screen, Non-Small Cell Lung Cancer
Description: as §1, §2, §3, §4, §5, §6

HCT-116 = assay: NCI-60 screen, Colon Cancer
Description: as §1, §2, §3, §4, §5, §6

HT29 = assay: NCI-60 screen, Colon Cancer
Description: as §1, §2, §3, §4, §5, §6

KM12 = assay: NCI-60 screen, Colon Cancer
Description: as §1, §2, §3, §4, §5, §6

SW-620 = assay: NCI-60 screen, Colon Cancer
Description: as §1, §2, §3, §4, §5, §6

IGROV1 = assay: NCI-60 screen, Ovarian Cancer
Description: as §1, §2, §3, §4, §5, §6

NCI/ADR-RES = assay: NCI-60 screen, Ovarian Cancer
Description: as §1, §2, §3, §4, §5, §6

OVCAR-3 = assay: NCI-60 screen, Ovarian Cancer
Description: as §1, §2, §3, §4, §5, §6

OVCAR-4 = assay: NCI-60 screen, Ovarian Cancer
Description: as §1, §2, §3, §4, §5, §6

OVCAR-5 = assay: NCI-60 screen, Ovarian Cancer
Description: as §1, §2, §3, §4, §5, §6

OVCAR-8 = assay: NCI-60 screen, Ovarian Cancer
Description: as §1, §2, §3, §4, §5, §6

SK-OV-3 = assay: NCI-60 screen, Ovarian Cancer
Description: as §1, §2, §3, §4, §5, §6

DU-145 = assay: NCI-60 screen, Prostate Cancer
Description: as §1, §2, §3, §4, §5, §6

PC-3 = assay: NCI-60 screen, Prostate Cancer
Description: as §1, §2, §3, §4, §5, §6

SMILES	Percent Growth (CCRF-CEM)	Percent Growth (HL-60(TB))	Percent Growth (K-562)	Percent Growth (MOLT-4)	Percent Growth (SR)	Percent Growth (A549/ATCC)	Percent Growth (EKVX)	Percent Growth (HOP-62)	Percent Growth (HOP-92)	Percent Growth (NCI-H226)	Percent Growth (NCI-H23)	Percent Growth (NCI-H322M)	Percent Growth (NCI-H460)	Percent Growth (NCI-H522)	Percent Growth (HCT-116)	Percent Growth (HT29)	Percent Growth (KM12)	Percent Growth (SW-620)	Percent Growth (IGROV1)	Percent Growth (NCI/ADR-RES)	other results
c1cc(-c2ccc3sc4ccc(-c5ccnc(N6CCNCC6)c5)cc4c3c2)cc(N2CCNCC2)n1 [Compound E]	−64.03%	−24.59%	−70.89%	−75.28%	−60.7%	−77.24%	22.56%	−80.18%	32.76%	39.89%	52.19%	−53.02%	−78.46%	−93.93%	−48.52%	−87.5%	−87.84%	−87.3%	−43.57%	3.12%	Percent Growth (OVCAR-3): −94.47%; Percent Growth (OVCAR-4): −87.74%; Percent Growth (OVCAR-5): −46.66%; Percent Growth (OVCAR-8): −61.04%; Percent Growth (SK-OV-3): 51.66%; Percent Growth (DU-145): −97.96%; Percent Growth (PC-3): −85.11%
NCCSc1cc(SCCN)c(C(F)(F)F)cc1NC(=O)c1cc(C(=O)Nc2cc(C(F)(F)F)c(SCCN)cc2SCCN)ncn1 [Compound F]	99.09%	82.57%	96.34%	82.85%	51.7%	15.81%	75.72%	29.35%	−24.05%	66.85%	60.86%	55.48%	47.73%	−2.5%	32.41%	56.34%	7.63%	18.57%	4.7%	54.76%	Percent Growth (OVCAR-3): −15.5%; Percent Growth (OVCAR-4): −1.474%; Percent Growth (OVCAR-5): 59.37%; Percent Growth (OVCAR-8): 14.34%; Percent Growth (SK-OV-3): 15.33%; Percent Growth (DU-145): 51.97%; Percent Growth (PC-3): 46.61%

From patent publication US20120115877A1, “Facially Amphiphilic Compounds, Compositions, And Uses Thereof In Treating Cancer” (POLYMEDIX, INC., priority 2010, published 2012)
